Reference: patent publication US4292321A, “1,3,8-Triazaspirodecane-4-ones, pharmaceutical compositions thereof and method of use thereof” (Warner-Lambert Company, priority 1980, dated 1981)
Where two headings read alike, the source gives them in different places.

Biological target: T1, dopamine receptor (Bos taurus, UniProt P20288)
T1 construct: from tissue
Assay: 3H-haloperidol receptor binding assay (HRBA)
Conditions: for inhibition at 0.1 µM / inhibition at 0.01 µM: read-out: inhibition of 3H-haloperidol binding
Excerpt: The compounds of this invention are useful because of their valuable pharmacological properties. […] As with other known neuroleptics, the compounds of this invention readily displace ^3 H-haloperidol from dopamine receptor binding sights in the ^3 H-haloperidol receptor binding assay (HRBA). […] The HRBA screen is described by I. Creese, D. R. Burt and S. H. Snyder, Science 142: 480 (1976) and by B. Seeman, T. Lee, M. Chani-Wong and K. Wong, Nature 261: 717 […].

T1 sequence (P20288 whole entry): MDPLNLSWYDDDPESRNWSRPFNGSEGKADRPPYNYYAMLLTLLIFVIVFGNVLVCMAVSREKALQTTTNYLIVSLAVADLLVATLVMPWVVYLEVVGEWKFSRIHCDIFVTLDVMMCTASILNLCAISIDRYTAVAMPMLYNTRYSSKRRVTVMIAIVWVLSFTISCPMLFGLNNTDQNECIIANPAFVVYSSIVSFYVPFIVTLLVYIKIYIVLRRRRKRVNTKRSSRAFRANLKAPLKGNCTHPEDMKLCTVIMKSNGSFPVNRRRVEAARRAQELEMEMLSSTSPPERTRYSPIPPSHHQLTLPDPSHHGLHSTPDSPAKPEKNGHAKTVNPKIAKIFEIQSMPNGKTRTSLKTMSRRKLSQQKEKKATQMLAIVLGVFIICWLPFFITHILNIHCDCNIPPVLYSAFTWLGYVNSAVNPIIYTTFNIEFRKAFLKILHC

| SMILES | inhibition of 3H-haloperidol binding (10 n moles concentration) | inhibition at 0.1 µM [%] | inhibition at 0.01 µM (10 n moles concentration) [%] | inhibition at 0.1 µM (100 n moles concentration) [%] | inhibition at 0.01 µM [%] |
| --- | --- | --- | --- | --- | --- |
| Fc1cccc(C2=CCN(CCCN(c3ccccc3)c3ccccc3)CC2)c1.O=C(O)C(=O)O [Example 40, 4-(3-Fluorophenyl)-1,2,3,6-tetrahydro-N,N-diphenyl-1-pyridinepropanamine ethanedioate] | no inhibition | ~23 |  |  |  |
| Cc1cccc(C2CCN(CCCN(c3ccccc3)c3ccccc3)CC2)c1 [Example 41, N,N-diphenyl-4-[3-methylphenyl]-1-piperidinepropanamine butenedioate] |  |  | ~25 | ~84 |  |
| Fc1ccc(NC2CCN(CCCN(c3ccccc3)c3ccccc3)CC2)cc1 [Example 42, 4-[(4-Fluorophenyl)amino]-N,N-diphenyl-1-piperidinepropanamine ethanedioate] |  | ~90 |  |  | ~26 |
| OC(c1ccccc1)C1CCN(CCCN(c2ccccc2)c2ccccc2)CC1 (stereo not drawn) [Example 43, 1-[3-(Diphenylamino)propyl]-alpha-phenyl-4-piperidine methanol.] | no inhibition |  |  | ~18 |  |
| O=C(c1ccc(Cl)cc1)C1CCN(CCCN(c2ccc(F)cc2)c2ccc(F)cc2)CC1 [Example 44, [1-[3-[Bis(4-fluorophenyl)amino]propyl]-4-piperidinyl]-(4-chlorophenyl)methanone ethanedioate] |  | ~69 |  |  | ~8 |
| c1ccc(N(CCCN2CCC3(CC2)OCCO3)c2ccccc2)cc1 [Example 45, N,N-diphenyl-1,4-dioxo-8-azaspiro[4,5]decane-8-propanamine ethanedioate.] |  |  | ~10 | ~26 |  |
| c1ccc(N(CCCNC2=NC3CCC2CC3)c2ccccc2)cc1 [Example 46, N'-2-azabicyclo[2,2,2]-oct-2-en-3-yl-N,N-diphenyl-1,3-propanediamine] |  |  | ~3 | ~12 |  |
